Structures can show the parent of a compound that is named as a salt.
Legend:
[1] = in vitro; conditions: male, C57BL/6J, mouse, plasma, pH 7.4
Procedure: (§1) The experiment utilized a HT-Dialysis plate (HTD 96 b) and a dialysis membrane with a molecular weight cutoff of 12-14 kDa. The plasma was derived from male C57BL/6J mice, treated with EDTA-K2 as an anticoagulant. The experimental procedure commenced with plasma thawing under cold tap water, followed by centrifugation at 3220×g for 5 minutes to eliminate clots, and pH adjustment to 7.4+0.1.
(§2) Dialysis membranes were initially hydrated in ultra-pure water for about one hour and then treated in a 20:80 ethanol-water mixture for 20 minutes. These prepared membranes could be used immediately or stored at 2-8° C. for up to a month. Membranes were rinsed in ultra-pure water before use.
(§3) Test and control compounds were prepared at a 400 µM concentration by diluting stock solutions with DMSO. Working solutions were further diluted to create 2 μM loading matrix solutions, which were thoroughly mixed. In the assay, 50 μL aliquots of these solutions were dispensed in triplicate into a Sample Collection Plate, balanced with blank PBS to a final volume of 100 µL per well. A stop solution containing acetonitrile, tolbutamide, and labetalol was added, and samples were mixed and cooled at 2 to 8° C.
(§4) During the dialysis, 100 μL aliquots from the loading matrix were placed in the dialysis well's donor side, matched with an equal volume of PBS on the receiver side, and incubated at 37° C. for 4 hours. Post-dialysis, samples from both sides were collected, balanced to 100 μL with corresponding blank fluids, treated with stop solution, vortexed, and centrifuged to prepare for LC-MS/MS analysis.
(§5) Data analysis involved calculating the percentages of Unbound, Bound, and Recovery of the compounds post-dialysis. % Unbound was calculated as the ratio of the compound's peak area on the receiver side to its internal standard, reflecting the fraction that crossed the membrane. % Bound was the complement of % Unbound, representing the fraction retained on the donor side. % Recovery was determined from the peak area ratios on both sides of the membrane, assessing the dialysis efficiency in retaining the compound. These metrics provided insights into the compound's free, bound, and recoverable quantities, elucidating its behavior in the dialysis system.

[2] = tested on: plasma proteins; assay: in vitro; conditions: male, C57BL/6J, mouse, pH 7.4
Procedure: as §1, §2, §3, §4, §5

[3] = tested on: brain proteins; assay: in vitro; conditions: for % Undiluted Unbound (n = 3): brain homogenate
Procedure: The initial preparation of the dialysis membrane involved thawing brain homogenate in a water bath at room temperature and subsequently heating it at 37° C. for 10 minutes. The dialysis setup utilized was from HT Dialysis LLC, featuring a HT-Dialysis plate (Model HTD 96 b) and a dialysis membrane with a molecular weight cutoff of 12-14 kDa.
The membrane underwent a comprehensive pretreatment which included hydration in ultra-pure water at room temperature for approximately one hour. This was followed by separation and immersion in a 20:80 ethanol:water solution for about 20 minutes. After this treatment, the membranes were either used immediately or stored at 2-8° C. for up to one month, with a final rinse in ultra-pure water prior to experimental use.
For compound preparation, test and control substances were first dissolved to create 400 μM working solutions by mixing 4 μL of stock solution with 96 μL of DMSO. These working solutions were then further diluted to 2 μM in a blank matrix by combining 3 μL of the prepared solution with 597 μL of matrix, ensuring thorough mixing.
During the assay, 50 μL aliquots of the 2 μM compound-matrix mixture were dispensed in triplicate into a Sample Collection Plate. Each aliquot was paired with an equal volume of blank PBS to standardize the total volume to 100 μL per well at a 1:1 matrix to PBS ratio. A stop solution comprising 500 μL of acetonitrile with tolbutamide and labetalol at 250 nM each was added to stabilize the samples at TO. The samples were then shaken at 800 rpm for 10 minutes and stored at 2-8° C.
The dialysis procedure included assembling the dialysis device according to the manufacturer's specifications, loading the matrix aliquots into the donor side of the dialysis wells, and conducting the dialysis under a humidified atmosphere with 5% CO2 at 37° C. for 4 hours.
Post-dialysis, 50 μL samples were collected from both the receiver and donor sides into new 96-well plates. Volumes were adjusted to 100 μL by adding an equivalent amount of the opposite blank matrix or PBS. The samples were prepared for LC-MS/MS analysis after thorough vertexing and centrifugation. Blank control samples were prepared and processed similarly to mirror the test conditions.
Data analysis involved calculating the percentages of undiluted unbound and bound fractions, and recovery of the compounds.

[4] = in vivo; conditions: male, C57BL/6J, mouse, po, 5 mg/kg
Procedure: Male C57BL/6J mouse was use in the in vivo distribution assay. The sample of brain, spinal cord and serum were collected for the drug distribution calculation.
Before commencing the study, the mice were acclimated to the test facility for at least 3 days. During this period, their general health was assessed by veterinary staff or other authorized personnel. The mice were housed in groups of up to four per cage in polysulfone cages, using either certified aspen shaving bedding or corncob bedding. This bedding was regularly tested for environmental contaminants by the manufacturer. The facility's environment was carefully controlled to maintain a temperature range of 20-26° C., relative humidity between 40 to 70%, and a 12-hour light/12-hour dark cycle, although this cycle can be interrupted for study-related activities. Temperature and humidity were continuously monitored by the Vawasala ViewLinc Monitoring system.
For dosing, an appropriate amount of the compounds was accurately weighed and mixed with a suitable volume of vehicle to achieve a clear solution. This process may require vertexing or sonication in a water bath. The animals were dosed within four hours of formulation preparation. Samples from each formulation were then collected for dose validation using either LC/UV or LC-MS/MS analysis.
Oral gavage was employed for dosing following the facility's SOPs, with the dose volume based on the animal's body weight measured on the morning of the dosing day.
Blood collections were performed from the saphenous vein or another suitable site, with approximately 0.1 mL collected per time point into pre-chilled commercial EDTA-K2 tubes. The samples were kept on wet ice until centrifugation at 4° C. and 3,200 g for 10 minutes. The plasma was then transferred into pre-labeled 96-well plates or polypropylene tubes, quick-frozen over dry ice, and stored at −60° C. or lower until LC-MS/MS analysis. […]
We calculated AUC ratio from the equation AUC ratio=Tissue AUC0-last/plasma AUC0-last. […]

[5] = tested on: MC38 tumor
Procedure: The cells in exponential growth phase were harvested and quantitated by cell counter before tumor inoculation. […] The date of randomization was denoted as day 0.
After tumor cells inoculation, the animals were checked daily for morbidity and mortality. […] Mortality and observed clinical signs were recorded for individual animals in detail. […] Dosing as well as tumor and body weight measurements were conducted in a Laminar Flow Cabinet. The body weights and tumor volumes were measured by using StudyDirector™ software (version 3.1.399.19).

[6] = mouse, in vivo, po, 1 mg/kg
Procedure: Initially, mice were acclimatized to the testing environment for 8 hours the day before the experiment, followed by at least 2 hours of habituation on the day of the test. The mice were then grouped randomly based on their body weight into six per group, ensuring a balanced distribution for the administration of the drug, which was dissolved in 20% HP-β-CD in water.
The locomotor activity was monitored by placing the mice in the center of a test box, with a video tracking system measuring the distance traveled every 5 minutes for 60 minutes. The testing began at T=0 minutes, immediately after administering the vehicle or compounds, and concluded at T=60 minutes. For data analysis, Prism 8.3.0 software was utilized, employing Two-way ANOVA followed by Bonferroni's multiple comparison test to analyze distance variations across different time points and One-way ANOVA followed by Dunnett's multiple comparisons test for assessing the total distance covered by the groups. A significance level of p<0.05 was established for determining significant differences.

[7] = target: P-glycoprotein (P-gp) (Homo sapiens, UniProt P08183); assay: in vitro; conditions: MDCK-MDR1
Procedure: (§6) MDR1-MDCK II cells (obtained from Piet Borst at the Netherlands Cancer Institute) were seeded onto Polycarbonate membranes (PC) in 96-well insert systems at 3.33×10^5 cells/mL until to 4-7 days for confluent cell monolayer formation.
(§7) Selected α2AR agonist from table 3s were diluted with the transport buffer (HBSS with 10.0 mM Hepes, pH7.4) from DMSO stock solution to a concentration of 2 μM (DMSO<1%) and applied to the apical or basolateral side of the cell monolayer. […] Permeation of the test compounds from A to B direction and/or B to A direction was determined in duplicate. Digoxin was tested at 10.0 μM from A to B direction and B to A direction in duplicate. The plate was incubated for 2.5 hours in CO2 incubator at 37.0±1.0° C., with 5.0% CO2 at saturated humidity without shaking. In addition, the efflux ratio of each compound was also determined. Test and reference compounds were quantified by LC/MS/MS analysis based on the peak area ratio of analyte/IS.
(§8) After transport assay, lucifer yellow rejection assay was applied to determine the cell monolayer integrity. Buffers were removed from both apical and basolateral chambers, followed by the addition of 75 μL of 100 μM lucifer yellow in transport buffer and 250 μL transport buffer in apical and basolateral chambers, respectively. The plate was incubated for 30 minutes at 37.0° C. with 5.0% CO2 and 95.0% relative humidity without shaking. After 30 minutes incubation, 20 μL of lucifer yellow samples were taken from the apical sides, followed by the addition of 60 μL of transport Buffer. And then 80 μL of lucifer yellow samples were taken from the basolateral sides. The relative fluorescence unit (RFU) of lucifer yellow was measured at 425/528 nm (excitation/emission) with an Envision plate reader.
(§9) The apparent permeability coefficient Papp (cm/s) was calculated using the equation: […]
(§10) wherein dCr/dt is the cumulative concentration of compound in the receiver chamber as a function of time (μM/s); Vr is the solution volume in the receiver chamber (0.075 mL on the apical side, 0.25 mL on the basolateral side); A is the surface area for the transport, i.e. 0.143 cm2 for the area of the monolayer; and C0 is the initial concentration in the donor chamber (μM).
(§11) The efflux ratio was calculated using the equation: […]

[8] = target: T1, α2AAR (α2A-adrenergic receptor) (Homo sapiens, UniProt P08913); assay: α2AAR FLIPR assay (agonist activity); type: cell-based; conditions: FLIPR, α2AAR cell line hosted in HEK293 cells; read-out: α2A agonist activity (EC50)
T1 construct: expressed in transfected cells; host or cells: HEK293
T1 sequence (P08913 1-465): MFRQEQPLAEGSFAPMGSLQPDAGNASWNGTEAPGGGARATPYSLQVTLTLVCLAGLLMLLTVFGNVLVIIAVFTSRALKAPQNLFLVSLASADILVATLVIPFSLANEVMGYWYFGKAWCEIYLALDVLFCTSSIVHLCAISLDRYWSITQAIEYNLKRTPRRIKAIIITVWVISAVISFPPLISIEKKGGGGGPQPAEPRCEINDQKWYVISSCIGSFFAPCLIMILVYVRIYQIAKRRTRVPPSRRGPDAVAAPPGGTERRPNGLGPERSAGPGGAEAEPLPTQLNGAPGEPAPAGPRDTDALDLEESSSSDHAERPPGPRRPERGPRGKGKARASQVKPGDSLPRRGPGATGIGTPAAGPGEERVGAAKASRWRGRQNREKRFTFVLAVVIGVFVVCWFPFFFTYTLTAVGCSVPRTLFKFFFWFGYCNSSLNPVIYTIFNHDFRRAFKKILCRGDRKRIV
Summary of the method: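 HEK293 cells expressing α2AAR loaded with Fluo-4 Direct plus probenecid for 50 min at 37° C and 10 min at room temperature, then treated with serially diluted compounds.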

[9] = target: T2, α2AAR (Homo sapiens, UniProt P08913); assay: α2AAR binding assay ([3H]-RX 821002 radioligand); conditions: [3H]-RX 821002 0.5 nM, HEK293 membranes; read-out: α2A affinity (Ki)
T2 construct: host or cells: HEK293 (membranes)
T2 sequence (P08913 1-465): T1 sequence (P08913 1-465)

[10] = target: P-glycoprotein (P-gp, MDR1) (Homo sapiens, UniProt P08183); assay: in vitro; conditions: dog, MDCK-MDR1, pH 7.4
Procedure: as §6, §7, §8, §9, §10, §11

[11] = D17, G2: 5 mg/kg p.o. QD Day 0~Day 3, then 2 mg/kg QD Day 4~Day 17

Chain of P-glycoprotein (P-gp, MDR1) (P08183 whole entry): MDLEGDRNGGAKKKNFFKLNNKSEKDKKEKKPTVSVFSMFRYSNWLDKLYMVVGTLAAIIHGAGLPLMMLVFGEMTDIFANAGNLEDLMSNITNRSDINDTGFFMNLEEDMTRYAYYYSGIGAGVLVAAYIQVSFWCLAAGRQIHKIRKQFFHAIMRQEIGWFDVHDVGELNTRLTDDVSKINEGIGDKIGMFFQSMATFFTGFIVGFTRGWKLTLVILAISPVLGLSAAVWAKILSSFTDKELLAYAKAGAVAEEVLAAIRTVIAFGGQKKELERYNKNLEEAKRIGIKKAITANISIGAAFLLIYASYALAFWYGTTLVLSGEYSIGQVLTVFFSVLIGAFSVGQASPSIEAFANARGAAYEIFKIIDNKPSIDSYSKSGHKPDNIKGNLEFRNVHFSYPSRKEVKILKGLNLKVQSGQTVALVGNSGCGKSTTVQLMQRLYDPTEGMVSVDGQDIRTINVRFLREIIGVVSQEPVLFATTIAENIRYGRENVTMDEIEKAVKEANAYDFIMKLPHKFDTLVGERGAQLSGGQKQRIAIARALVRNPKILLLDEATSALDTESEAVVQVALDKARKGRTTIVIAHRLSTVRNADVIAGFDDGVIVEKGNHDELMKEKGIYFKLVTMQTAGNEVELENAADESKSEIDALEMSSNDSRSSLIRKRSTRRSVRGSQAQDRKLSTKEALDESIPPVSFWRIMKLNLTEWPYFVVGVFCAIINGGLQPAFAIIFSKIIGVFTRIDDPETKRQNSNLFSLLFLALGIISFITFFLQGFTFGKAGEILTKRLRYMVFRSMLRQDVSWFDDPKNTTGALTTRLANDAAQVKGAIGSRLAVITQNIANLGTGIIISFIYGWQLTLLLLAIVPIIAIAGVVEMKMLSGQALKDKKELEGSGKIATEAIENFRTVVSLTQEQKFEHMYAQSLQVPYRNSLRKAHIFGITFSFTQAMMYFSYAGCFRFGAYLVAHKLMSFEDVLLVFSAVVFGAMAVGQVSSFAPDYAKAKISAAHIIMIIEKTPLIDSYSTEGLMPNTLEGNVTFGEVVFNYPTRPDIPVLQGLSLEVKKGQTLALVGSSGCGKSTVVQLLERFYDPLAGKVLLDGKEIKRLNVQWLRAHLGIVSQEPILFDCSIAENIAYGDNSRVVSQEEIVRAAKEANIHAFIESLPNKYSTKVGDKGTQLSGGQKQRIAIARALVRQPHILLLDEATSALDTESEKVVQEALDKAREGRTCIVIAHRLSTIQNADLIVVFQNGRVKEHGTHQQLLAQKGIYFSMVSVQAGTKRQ
Chain of P-glycoprotein (P-gp) (P08183 whole entry): as above

SMILES	recovery at 4 h, 2 μM [3]	% Undiluted Unbound (n = 3) ([3]; 4 h, 2 μM)	EC50 [8]	Ki [9]	efflux ratio at 2.5 h, 2 μM [10]	also measured
Cc1cccc([C@H](C)c2cnc[nH]2)c1C [Dexmedetomidine HCl, dexmedetomidine HCl]	93.8%	6.3%	–	–	–	fraction unbound at 4 h, 2 μM [1]: 0.068; recovery at 4 h, 2 μM [2]: 88.9%; Kp [4]: 1.26
Clc1cccc(Cl)c1N=C1NCCN1 [Clonidine, clonidine]	–	–	–	–	–	T/C (%) [5, 11]: 27.38%; TGI (%) [5, 11]: 72.62%; Tumor volume (mm^3) (mean ± SEM) [5, 11]: 766.52 ± 147.17 mm^3; state of mice at high dose ([5]; G2 group, 5 mg/mL, Day 0-3, p.o.): poor state of mice; sedation (total distance travelled 0-60 min) [6]: significant sedation
Oc1ccc2c(c1)C(Cc1c[nH]cn1)CC2 (centres unmarked) [Fadolmidine, reference compound]	–	–	–	–	–	Efflux ratio [7]: 0.80
CC(C)NCC(O)COc1cccc2ccccc12 (centres unmarked) [Propranolol, propranolol]	109%	2.6%	–	–	–	% Undiluted Bound (n = 3) ([3]; 4 h, 2 μM): 97.4%
Clc1cccc(Cl)c1N=C1NCCN1 [Clonidine HCl, clonidine HCl]	105%	23.0%	–	–	–	fraction unbound at 4 h, 2 μM [1]: 0.708; recovery at 4 h, 2 μM [2]: 93.2%; Kp [4]: 2.27; Kp uu [4]: 0.739
Cc1cccc(C(Cc2ccc(NC(=O)NC3CCOCC3)cc2)c2c[nH]cn2)c1C (centres unmarked) [compound 205]	–	–	10 to 50 nM	< 10 nM	61.8	–
Cc1cccc(C(Cc2ccc(NC(=O)C3COC3)cc2)c2c[nH]cn2)c1C (centres unmarked) [compound 200]	–	–	10 to 50 nM	< 10 nM	27.7	–
Cc1cccc(C(c2cccc(NC(=O)CCC3CCOCC3)c2)c2c[nH]cn2)c1C (centres unmarked) [compound 101]	–	–	10 to 50 nM	10 to 50 nM	104	–
Cc1cccc(C(c2cccc(C(N)=O)c2)c2c[nH]cn2)c1C (single isomer, unassigned) [5-B]	–	–	10 to 50 nM	10 to 50 nM	33.2	–
Cc1c(CF)cccc1C(c1cccc(NS(C)(=O)=O)c1)c1c[nH]cn1 (racemic) [compound 118]	–	–	10 to 50 nM	10 to 50 nM	25.3	–
